Results: US5087631A, “Oxathi(SIV)azol-5-one compounds” (Glaxo Inc., priority 1990, dated 1992)

These compounds were tested on thoracic aortas (assay: Aorta Vasodilation Assay (relaxation of phenylephrine-contracted, endothelium-removed rat thoracic aorta rings)). Details: 20% O2, without methylene blue, endothelium-removed rings contracted with phenylephrine (1×10^-7 M), SOD 100 U/mL, cumulative addition, read-out: IC50 (relaxation induced by test compound, vasodilation assay).
Set-up: species or system male Sprague-Dawley rats
Method: The thoracic aortas removed from euthanized male Sprague-Dawley rats (200-300 g) are cleaned of adherent connective tissue and cut into rings 3 to 5 mm in length. Endothelium is removed by rolling the rings on moist filter paper. […] Tissues are mounted to isometric force displacement transducers and responses are recorded on a polygraph.
All rings are gradually stretched (over a 120 min. period) to a basal resting tension of 2 g, which is maintained throughout the assay. During the basal tension adjustment period, the rings are exposed to KCl (40 mM) two to three times to verify tissue contractility. During this period, the effectiveness of endothelium removal is confirmed by the absence of the characteristic relaxation seen with acetylcholine (1×10^-6 M) in endothelium-intact (but not endothelium-removed) rings contracted with phenylephrine (1×10^-7 M).
Phenylephrine (1×10^-7 M) is then added and the rings are allowed to obtain a stable contractile response after which time, SOD (100 U/mL) is added to the tissues. The test compound is then added in a cumulative fashion. After the stabilization of the response to the last concentration of the test compound, sodium nitroprusside (1×10^-4 M) is added to induce complete relaxation.

Row | Structure (SMILES) | IC50 [µM]
1 | COc1ccc(-c2[s+]noc2[O-])cc1 [4-methoxyphenyl, 4-(4-methoxyphenyl)-5H-1,3,2-oxathi(SIV)azol-5-one] | 1.3
2 | O=[N+]([O-])c1ccc(-c2[s+]noc2[O-])cc1 [4-nitrophenyl, 4-(4-nitrophenyl)-5H-1,3,2-oxathi(SIV)azol-5-one] | 16
3 | Cc1[s+]noc1[O-] [methyl, 4-Methyl-5H-1,3,2-oxathi(SIV)azol-5-one] | 20
4 | [O-]c1on[s+]c1-c1ccccc1 [phenyl, 4-phenyl-5H-1,3,2-oxathi(SIV)azol-5-one] | 2.3
